Data from US11938127B2, “Methods and compositions relating to steroid hormone receptor-dependent proliferative disorders” (Wayne State University, priority 2021, dated 2024).
Read-outs that look alike come from different tables or passages of the source.

How the values were obtained:
[1] = tested on: 22Rv1-Lenti vector cells; assay: Colony formation in control 22Rv1 cells transduced with lentiviral vector alone; assay type: cell-based; details: control 22Rv1 cells (vector), with DHT
Description: (§1) 22Rv1 cells were plated in triplicate at a density of 2000 cells/well in 6-well plates in 48-hour conditioned medium (phenol-red free RPMI1640 10% FBS, 1% penicillin/streptomycin, 1% L-glutamine) obtained from monolayer cultures of the same cells, as previously described. 48 h after plating, the cells were treated with various concentrations of the test compounds in the same media. The test compounds and media were replenished every 48 hours until colonies developed in the control untreated wells (in 10 days). The colonies were then stained with crystal violet and counted.
(§2) AR expressing lentiviral expression plasmid pCDH-CMV-MCS-EF1-puro (System BioSciences) or the plasmid vector alone (control), was packaged in 293FT cells. Virus-containing media was harvested at 48 and 72 hours after packaging and stored at −80° C. 48 hours before infection, 22Rv1 cells were plated at 30-50% confluence in 10 cm dishes in phenol-red free medium supplemented with 10% heat-inactivated FBS and 2 mM L-glutamine. On the day of infection, cells were infected with the lentivirus with polybrene (8 μg/mL) for a duration of 5 hours. The virus was then replaced with fresh medium containing 10% FBS and 100 units/mL penicillin, 100 μg/mL streptomycin, and 2 mM L-glutamine mixture. […]

[2] = tested on: CYP1A2; assay: Hepatic enzyme induction (mRNA) in primary human hepatocytes, CYP1A2; assay type: in vitro ADME; details: 72 hours
Description: (§3) Total RNA from cells was isolated using the PureLink RNA Mini Kit (Invitrogen, ThermoFisher Scientific) according to the manufacturer's protocol. Reverse transcription was performed using 30 ng of total RNA and the High Capacity cDNA Reverse Transcription kit (Applied Biosystems, ThermoFisher Scientific) according to the vendor's protocol. cDNA was measured by quantitative real time PCR using the StepOnePlus Real-Time PCR System (Applied Biosystems, Invitrogen) and TaqMan Fast Universal PCR Master Mix (Applied Biosystems, ThermoFisher Scientific). All primers and TaqMan probes were purchased from the Applied Biosystems inventory (ThermoFisher Scientific). All samples were measured in triplicate and normalized to the values for GAPDH.
(§4) Primary human hepatocytes used were the “Cryo Human Hepatocytes” from Gibco. 24 hours prior to treatment, cells were plated at 350,000 cells/well (700,000 cells/mL) in the following media: Williams E medium (WEM, A1217601), 2.5 mL FBS, 5 μL, 10 mM dexamethasone (from Gibco Thawing/Plating Supplement Pack, CM3000), 1.8 mL thawing/plating cocktail (from Gibco Thawing/Plating Supplement Pack, CM3000). […] The mRNAs for the following hepatic enzymes were quantified as described above. […]

[3] = tested on: HEK293 cells; assay: Viability of HEK293 cells (trypan blue); assay type: cell-based; details: 3 days treatment, 0.4 μM or 10 μM
Description: (§5) HEK293T cells were transfected with Rluc-AR alone, and alongside Turbo-Elk at a 4:1 ratio of ELK1:AR using Mirus LT1 reagent. The 4:1 ratio was determined to be the optimal ratio for the inhibition assay after testing different ratios of Turbo-Elk:Rluc-AR. 24 hours later, cells were treated with DMSO (vehicle control) or KCI838 (0.4 uM and 10 uM) and left for 24 hours. They were then trypsinized and seeded in 96 well white-bottomed plates at 100,000 per well (in quadriplicate) in media lacking phenol red (with DMSO or drug as required), left for 2 hours to settle, and then treated with 25 uM coelenterazine and luminescence read at 535 and 635 nm on a Clariostar instrument. BRET readings were calculated as 635/535 ratio minus 635/535 ratio for Rluc-AR only transfected controls. Cell lysates were probed by western blot for AR or ELK1, probing for GAPDH as the loading control. Cell viability in the presence of KCI838 was ensured by treating HEK293 cells for an extended period (3 days) with the compound or vehicle control and measuring viability using trypan blue staining.
To ensure that KCI838 was not toxic to the HEK293 cells, viability of the cells was tested following extended (3 days) treatment with, vehicle, 0.4 μM, or 10 μM KCI838. Viable cells were counted after three days and the data was plotted as percent of untreated cells.

[4] = tested on: 22Rv1-Lenti AR cells; assay: Colony formation in 22Rv1 cells overexpressing AR; assay type: cell-based; details: AR overexpressing 22Rv1 cells
Description: as §1, §2

[5] = tested on: UGT1A4; assay: Hepatic enzyme induction (mRNA) in primary human hepatocytes, UGT1A4; assay type: in vitro ADME; details: 72 hours, doses of 0.5 uM and 5 uM
Description: as §3, §4

[6] = tested on: UGT1A1; assay: Hepatic enzyme induction (mRNA) in primary human hepatocytes, UGT1A1; assay type: in vitro ADME; details: 72 hours, doses of 0.5 uM and 5 uM
Description: as §3, §4

[7] = Repeated intraperitoneal administration to mice (toxicity, body weight); assay type: in vivo, BalbC mice; details: for initial weight loss: male BalbC mice, intraperitoneal
Description: KCI838 was repeatedly administered by intraperitoneal injection to two groups of 6-week old male BalbC mice at doses of 200 mg/Kg and 100 mg/Kg.

[8] = tested on: 22Rv1 cells; assay: Colony formation assay in 22Rv1 cells; assay type: cell-based; details: 22Rv1 CRPC cells
Description: as §1
The ability of KCI837 to inhibit colony formation in castration and enzalutamide resistant prostate cancer cells was tested. 22Rv1 cells were seeded in triplicate six well plates in phenol red-free conditioned media. 48 hours later, treatment with KCI837 at the indicated doses was initiated. KCI837 was replenished every 48 hours. Seven days later, colonies were fixed and stained with crystal violet. Colony counts are plotted.

[9] = target: UGT1A1 (Homo sapiens (Human), UniProt P22309); assay: UGT1A1 inhibition assay with human UGT1A1-expressed Supersomes; assay type: in vitro ADME
Description: KCI838 was incubated at seven increasing concentrations with human UGT1A1-expressed Supersomes™ (0.25 mg/mL), alamethicin (25 μg/mL) and UDPGA (5 mM) in the presence of the probe substrate estradiol (10 μM) for 30 min at 37° C. The UGT1A1 inhibitor, atazanavir, was screened alongside the test compounds as a positive control. The reactions were terminated by quenching with one volume of methanol containing an analytical internal standard. The samples will be centrifuged at 5000 rpm for 10 min at 4° C. The metabolites were monitored by LC-MS/MS and a decrease in the formation of the metabolite compared to the vehicle control was used to calculate an IC50 value (test compound concentration which produces 50% inhibition).

[10] = target: binding of AR to ELK1 (Homo sapiens (Human), UniProt P10275); assay: BRET assay for inhibition of in situ binding of AR to ELK1 in HEK293T cells; assay type: cell-based; details: HEK-293T, read-out: inhibition of BRET signal for binding of AR to ELK1
Description: as §5
HEK293T cells were transfected with Rluc-AR alone, and alongside Turbo-Elk. 24 hours later, cells were treated with KCI838 at the indicated doses. The following day, the cells were reseeded and allowed to settle for two hours before the BRET assay was performed. […]

[11] = target: CYP1A2 (Homo sapiens (Human), UniProt P05177); assay: CYP1A2 inhibition assay in pooled human liver microsomes; assay type: in vitro ADME; details: standard enzymatic activity assay
Description: The quenched samples were incubated at 4° C. for 10 min and centrifuged at 4° C. for 10 min.

[12] = tested on: 22Rv1 cells; assay: Cell viability (MTT) assay, monolayer growth of 22Rv1 cells; assay type: cell-based; details: enzalutamide-resistant 22Rv1 CRPC monolayers; 2.5 uM, 5 uM and 10 uM
Description: (§6) Cells from monolayer cultures were trypsinized and seeded in 96-well plates coated with poly(d-lysine) at a density of 4000 cells per well (for 22Rv1 cells and LNCaP cells) or 5000 cells per well (for VCaP cells). The media used were the same as the growth media described above for each cell line. The plates were incubated at 37° C. in 5% CO2. Twenty-four hours later, the cells were treated with the indicated compound or dimethylsulfoxide (vehicle). The culture medium was replaced with fresh media containing vehicle or the appropriate concentration of compound at the end of 48 hours during the time course of the assay. Cell viability was determined on Day 0 and at the various time points using the standard 3-(4,5-dimethylthiazol-2-yl)-2,5-diphenyltetrazolium bromide (MTT) assay. The assays ware conducted in replicates of six wells per condition and values plotted as percent of the Day 0 values.

[13] = tested on: CWR22Rv1-AR-EK cells; assay: MTT growth assay in CWR22Rv1-AR-EK cells; assay type: cell-based; details: three or four days
Description: This model cell line thus mimics aggressively growing advanced prostate cancer tumor cells that are insensitive to current treatments such as testosterone suppression and androgen antagonists that cannot affect AR-Vs. Since KCI838 disrupts interaction of ELK1 with wtAR as well as AR-Vs, the effect of KCI838 on the growth of CWR22Rv1-AR-EK cells was tested. For this test, the cells were seeded in phenol red-free growth media. 24 hours later, the cells were treated with KCI838, FIG. 12A, or enzalutamide, FIG. 12B, at the indicated concentrations. Cells were grown for three or four days with replenishment of the drug at 48 hours. Cell viability was measured using the MTT assay.

[14] = tested on: VCaP cells; assay: Cell viability (MTT) assay, monolayer growth of VCaP cells; assay type: cell-based; details: dose range 2.5 uM-10 uM; dose-dependent
Description: as §6

Chain of binding of AR to ELK1 (P10275 whole entry): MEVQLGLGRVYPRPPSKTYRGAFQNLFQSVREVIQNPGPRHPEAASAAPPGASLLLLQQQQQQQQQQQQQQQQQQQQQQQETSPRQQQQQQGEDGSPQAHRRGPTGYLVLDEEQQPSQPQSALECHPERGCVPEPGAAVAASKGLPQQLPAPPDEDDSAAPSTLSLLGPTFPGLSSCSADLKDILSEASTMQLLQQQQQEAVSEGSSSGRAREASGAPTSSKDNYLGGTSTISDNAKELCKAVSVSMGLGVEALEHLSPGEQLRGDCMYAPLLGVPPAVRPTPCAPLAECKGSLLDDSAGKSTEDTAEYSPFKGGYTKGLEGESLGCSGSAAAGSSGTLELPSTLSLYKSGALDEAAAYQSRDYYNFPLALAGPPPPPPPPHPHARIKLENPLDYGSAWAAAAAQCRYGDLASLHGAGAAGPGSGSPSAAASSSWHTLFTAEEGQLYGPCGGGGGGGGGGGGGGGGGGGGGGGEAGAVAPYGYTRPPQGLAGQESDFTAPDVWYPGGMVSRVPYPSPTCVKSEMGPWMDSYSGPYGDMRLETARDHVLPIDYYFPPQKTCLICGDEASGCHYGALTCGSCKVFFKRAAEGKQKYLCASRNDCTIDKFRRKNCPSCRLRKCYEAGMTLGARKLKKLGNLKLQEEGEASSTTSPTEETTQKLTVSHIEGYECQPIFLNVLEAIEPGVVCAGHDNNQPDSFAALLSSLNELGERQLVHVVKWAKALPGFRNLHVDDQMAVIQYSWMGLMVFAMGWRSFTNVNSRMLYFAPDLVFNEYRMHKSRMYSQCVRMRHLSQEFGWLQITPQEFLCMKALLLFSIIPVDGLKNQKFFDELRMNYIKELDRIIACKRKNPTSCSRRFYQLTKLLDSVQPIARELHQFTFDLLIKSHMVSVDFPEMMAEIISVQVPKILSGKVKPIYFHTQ
Chain of UGT1A1 (Homo sapiens (Human), UniProt P22309) (P22309 26-533): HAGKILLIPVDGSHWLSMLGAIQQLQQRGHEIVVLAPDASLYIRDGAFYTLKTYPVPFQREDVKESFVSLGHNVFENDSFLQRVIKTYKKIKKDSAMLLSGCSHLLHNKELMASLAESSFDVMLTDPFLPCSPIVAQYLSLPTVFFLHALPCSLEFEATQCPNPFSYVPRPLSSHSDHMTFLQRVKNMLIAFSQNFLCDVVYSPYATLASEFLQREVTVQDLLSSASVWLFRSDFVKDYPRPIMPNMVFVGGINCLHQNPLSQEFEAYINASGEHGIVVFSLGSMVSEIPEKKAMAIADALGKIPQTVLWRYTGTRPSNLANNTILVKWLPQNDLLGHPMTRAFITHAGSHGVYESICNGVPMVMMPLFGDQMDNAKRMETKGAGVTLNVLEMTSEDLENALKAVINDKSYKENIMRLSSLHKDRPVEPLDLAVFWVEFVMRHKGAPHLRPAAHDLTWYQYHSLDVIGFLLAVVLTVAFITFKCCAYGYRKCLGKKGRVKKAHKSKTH
Chain of CYP1A2 (Homo sapiens (Human), UniProt P05177) (P05177 whole entry): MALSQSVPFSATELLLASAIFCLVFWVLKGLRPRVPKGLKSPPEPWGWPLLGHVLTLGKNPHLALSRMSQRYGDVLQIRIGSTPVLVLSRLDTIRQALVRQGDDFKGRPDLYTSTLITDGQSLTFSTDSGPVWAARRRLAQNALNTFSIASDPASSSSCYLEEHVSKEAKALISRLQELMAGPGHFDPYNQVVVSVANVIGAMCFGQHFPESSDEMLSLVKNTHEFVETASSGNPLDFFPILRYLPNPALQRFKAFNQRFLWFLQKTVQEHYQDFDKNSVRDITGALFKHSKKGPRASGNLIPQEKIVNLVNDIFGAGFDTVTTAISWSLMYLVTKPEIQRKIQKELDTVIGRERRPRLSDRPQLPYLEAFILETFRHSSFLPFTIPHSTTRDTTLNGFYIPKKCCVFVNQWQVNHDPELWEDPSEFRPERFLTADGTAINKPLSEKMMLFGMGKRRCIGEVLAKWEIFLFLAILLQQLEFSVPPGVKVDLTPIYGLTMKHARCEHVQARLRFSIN

SMILES: O=c1cc(-c2cccc(O)c2)n(CC(F)(F)F)c2cccc(O)c12 [KCI838]
- IC50 ([1]; Homo sapiens, read-out: IC50 for inhibition of colony formation): 0.068 µM
- IC75 for inhibition of colony formation [1]: 0.121 µM
- induction of CYP1A2 ([2]; 0.5 uM dose): unable to induce CYP1A2
- induction of CYP1A2 ([2]; higher doses than 0.5 uM): induce the enzyme
- viability of HEK293 cells [3]: virtually completely viable
- inhibition of colony formation at 68 nM ([4]; 68 nM): no inhibition
- IC50 ([4]; Homo sapiens, with DHT, read-out: IC50 for inhibition of colony formation): 0.132 µM
- induction of UGT1A4 [5]: not induced significantly
- induction of UGT1A1 [6]: not induced significantly
- signs of toxicity ([7]; 6-week old male BalbC mice, repeated intraperitoneal injection, 200 mg/Kg and 100 mg/Kg): no apparent signs of toxicity
- initial weight loss ([7]; 100 mg/Kg): ~2%
- initial weight loss ([7]; 200 mg/Kg): ~4%
- IC50 ([8]; Homo sapiens, read-out: IC50 of colony counts): ~0.06 µM
- IC50 ([9]; standard enzymatic activity assay, read-out: IC50 value for UGT1A1): 35.9 µM
- inhibition at 0.4 µM ([10]; 0.4 μM): 60%
- inhibition at 10 µM ([10]; 10 μM): 95%
- IC50 [11]: 2.92 µM

SMILES: COC(=O)N[C@H](C(=O)N[C@@H](Cc1ccccc1)[C@@H](O)CN(Cc1ccc(-c2ccccn2)cc1)NC(=O)[C@@H](NC(=O)OC)C(C)(C)C)C(C)(C)C [atazanavir, reference compound]
- IC50 ([9]; human UGT1A1 Supersomes, probe substrate estradiol (10 μM), 30 min at 37° C., read-out: IC50): 0.792 µM

SMILES: CNC(=O)c1ccc(N2C(=S)N(c3ccc(C#N)c(C(F)(F)F)c3)C(=O)C2(C)C)cc1F [enzalutamide]
- time course of growth inhibition [12]: did not inhibit cell growth
- growth of CWR22Rv1-AR-EK cells [13]: insensitive
- monolayer growth of VCaP cells [14]: inhibited monolayer growth
- effect on colony formation ([8]; nanomolar dose range): no effect on colony formation
